# Where “and” joins values, the source holds several entries; their conditions need not be identical. Identical values can stand only once. Entries after “also recorded” stand apart in the source; their conditions may differ. Like-named read-outs stand apart in the source and are kept apart here.
# T1: AII-2 receptor (Rattus norvegicus, UniProt P35351)
# T1 sequence (P35351 1-363): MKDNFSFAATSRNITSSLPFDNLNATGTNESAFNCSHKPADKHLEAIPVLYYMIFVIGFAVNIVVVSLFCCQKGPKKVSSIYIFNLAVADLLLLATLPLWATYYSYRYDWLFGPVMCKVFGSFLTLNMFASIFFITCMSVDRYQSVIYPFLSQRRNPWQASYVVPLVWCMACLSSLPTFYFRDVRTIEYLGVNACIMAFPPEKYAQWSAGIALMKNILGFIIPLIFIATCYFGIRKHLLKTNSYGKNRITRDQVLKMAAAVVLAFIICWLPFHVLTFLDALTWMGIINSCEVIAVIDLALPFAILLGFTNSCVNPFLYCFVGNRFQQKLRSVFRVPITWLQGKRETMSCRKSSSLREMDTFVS
# T2: AII receptors (rat adrenal medullary microsomes) (Rattus norvegicus, UniProt P35351)
# T2 construct: from tissue; host or cells: rat adrenal medulla, microsomes
# T2 sequence (P35351 1-363): T1 sequence (P35351 1-363)
# B1: renin: an enzyme involved in endogenous AII biosynthesis (protein, UniProt P00797 67-406, looked up)
# Renin: LTLGNTTSSVILTNYMDTQYYGEIGIGTPPQTFKVVFDTGSSNVWVPSSKCSRLYTACVYHKLFDASDSSSYKHNGTELTLRYSTGTVSGFLSQDIITVGGITVTQMFGEVTEMPALPFMLAEFDGVVGMGFIEQAIGRVTPIFDNIISQGVLKEDVFSFYYNRDSENSQSLGGQIVLGGSDPQHYEGNFHYINLIKTGVWQIQMKGVSVGSSTLLCEDGCLALVDTGASYISGSTSSIEKLMEALGAKKRLFDYVVKCNEGPTLPDISFHLGGKEYTLTSADYVFQESYSSKKLCTLAIHAMDIPPPTGPTWALGATFIRKFYTEFDRRNNRIGFALAR
# Experiments:
# [1] = system: memory of previously learned tasks; conditions: in vivo; cited from earlier work
# [2] = system: retention of a passive avoidance (PA) response; conditions: injected into the dorsal neostriatum, rats; cited from earlier work
# AII-1 receptor [3] = experiment: [125I]AII radioligand binding, rat adrenal cortical microsomes, AII-1 (DuP 753-sensitive) sites; conditions: for preference for one AII receptor subtype: AII-1 vs. AII-2
# Protocol: (§2) The same procedures and conditions were used for adrenal medullary microsomes. […] After 60 min of incubation, the reaction was terminated by addition of cold assay buffer. The bound and free radioactivity were rapidly separated through glass-fiber filters, and the trapped radioactivity was determined by gamma counting.
# AII-2 receptor [4] = target: T1, AII-2 receptor; experiment: [125I]AII radioligand binding, rat adrenal cortical microsomes, AII-2 (DuP 753-insensitive) sites; conditions: for selective binding to AII-2 receptors: AII-2 vs. AII-1
# Protocol: as §2
# [5] = target: T2, AII receptors (rat adrenal medullary microsomes); experiment: [125I]AII specific binding, rat adrenal medulla / medullary microsomes
# Protocol: as §2
# [6] = system: AII receptors (rat adrenal medullary microsomes); experiment: as above; conditions: below 1×10^-5 M; rat adrenal medullary microsomes
# Protocol: as §2
# [7] = system: AII receptors (rat adrenal cortical membranes); experiment: AII binding to rat adrenal cortical membranes with and without DTT pretreatment; conditions: for effect of DTT on the inhibition of AII binding: 5 mM DTT, DuP 753 at 3×10^-9 to 3×10^-6 M
# Excerpt: (§1) 102: 685-696, except the above binding assay conditions were used.
# [8] = system: AII receptors (rat adrenal gland); conditions: DuP 753 10^-5 M, XB-655 10^-6 M
# Protocol: Fresh tissue was frozen on powdered dry ice and stored at -70° C. until used. Sections were cut at 15 microns and thaw mounted onto gelatin subbed slides. […] Slides were placed under X-ray film (Kodak XAR-5) and exposed for 11/2 days before processing the film to produce the film autoradiograms. The slides were then fixed with paraformaldehyde vapor at 80° C. for two hours, dried under air, delipidated, and dipped in emulsion (Kodak NTB-2). The coated slides were exposed for 4-5 weeks, developed with Kodak D-19 and counter-stained with hemotoxylin-eosin to view the histology.
# [9] = system: AII receptors (rat adrenal cortical microsomes); experiment: [125I]AII total specific binding, rat adrenal cortex / cortical microsomes
# Protocol: as §2
# PA task = experiment: renin-induced amnesia in a PA task (applicants); format: in vivo; conditions: IVT
# avoidance learning = conditions: renin IVT, cited from earlier work; for avoidance learning: captopril IVT prior to the renin injection
# [10] = system: light/dark habituation performance; conditions: cited from earlier work
# [11] = system: potassium stimulated release of [^3 H]ACh; conditions: entorhinal cortex of rat brain; cited from earlier work
# AII-1 receptor [12] = experiment: DTT inactivation of the AII-1 receptor; format: binding, rat
# Excerpt: as §1
# AII receptor subtype A = conditions: cited from earlier work
# AII receptor subtype B = conditions: cited from earlier work
# AII-2 receptor [13] = target: T1, AII-2 receptor; experiment: DTT inactivation of the AII-2 receptor; format: binding; parameters: AII-1 and AII-2 receptor subtypes in rat adrenal cortex microsomes; from tissue; host or cells: rat adrenal cortex (microsomes)
# Excerpt: as §1
# [14] = in the presence of 10^-5 M XB-655, rat adrenal cortex microsomes, read-out: IC50 AII-1
molecule,measurement,setting,value
NCCCC[C@H](OP(=O)(O)CCCCc1ccccc1)C(=O)N1CCC[C@H]1C(=O)O [SQ 29852],anticholinergic effect on performance,[1],"ameliorate, at least in part"
same,memory of previously learned tasks,[1],protective effects on memory
lysine-8-vasopressin,retention of a PA response,[2],no effect
O=C(O)C1Cc2c(ncn2Cc2ccc(-c3ccccc3-c3nnn[nH]3)cc2)CN1C(=O)C(c1ccccc1)c1ccccc1 (centres unmarked) [Example 27],IC50,AII-1 receptor [3]; [14],300000 nM
same,selective binding to AII-2 receptors,AII-2 receptor [4],bind selectively to AII-2 receptors
CCCCc1nc(Cl)c(CO)n1Cc1ccc(-c2ccccc2-c2nn[nH]n2)cc1 [DuP 753],IC50,AII-1 receptor [3]; [14],12 nM
same,inhibition of AII binding (in words),[5]; rat adrenal medulla,essentially inactive
same,inhibition of binding below 1×10^-5 M,[6],10%
same,effect of DTT on the inhibition of AII binding,[7],essentially abolished
same,labeling of adrenal cortex by [125I]AII,[8],significantly reduced
same,labeling of adrenal medulla by [125I]AII,[8],not appreciably affected
same,inhibition of the total AII binding,[9],80%
"COC(=O)C1Cc2c(ncn2Cc2ccc(NC(=O)c3ccccc3C(=O)O)c(C)c2)CN1C(=O)C(c1ccccc1)c1ccccc1 (centres unmarked) [Example 2, Methyl-1-[4-amido-(2'-carboxyphenyl)-3-methylphenyl]methyl-5-diphenylacetyl-4,5,6,7-tetrahydro-1H-imidazo (4,5-C)-pyridine-6-carboxylate]",IC50,AII-1 receptor [3]; [14],12000 nM
same,selective binding to AII-2 receptors,AII-2 receptor [4],bind selectively to AII-2 receptors
C[C@H](CS)C(=O)N1CCC[C@H]1C(=O)O [captopril],amnesia in a PA task,PA task,prevented
same,avoidance learning,avoidance learning,prevented the renin-induced avoidance disruption
same,anticholinergic scopolamine-induced disruption of performance,[10]; daily treatment,prevented
same,rate of acquisition of light/dark habituation performance,[10]; subchronic treatment,increased the rate of acquisition
NC(=O)[C@@H]1CCCN1C(=O)[C@H](Cc1cnc[nH]1)NC(=O)[C@@H]1CCC(=O)N1 [thyrotropin releasing hormone],retention of a PA response,[2],no effect
"[1-sarcosine, 8-threonine]angiotensin II",antagonism of the AII effect on ACh release,[11],antagonized
"Angiotensin II (DRVYIHPF; Angiotensin-2; UniProt P01019 25-32, looked up) [AII]",preference for one AII receptor subtype,AII-1 receptor [3],no preference
same,enhancement of inhibitory potency by DTT,[7]; presence vs. absence of DTT,2.5 fold
same,IC50,"[7]; read-out: IC50 in the absence of DTT, absence of DTT",1 nM
same,retention of a PA response,[2],disruption in retention of a PA response
same,basal levels of ACh release,[11],without effects on basal levels
same,potassium-stimulated release of ACh,[11],reduced potassium-stimulated release of ACh
same,labeling of adrenal cortex by [125I]AII,[8],potently inhibited the labeling
same,labeling of adrenal medulla by [125I]AII,[8],potently inhibited the labeling
"O[C@H](CS)[C@H](O)CS (racemic) [DTT, dithiothreitol]",inactivation of AII-1 receptor by DTT,AII-1 receptor [12],particularly sensitive to inactivation; also recorded: inactivated by DTT
same,effect of DTT on binding to subtype A,AII receptor subtype A,enhance binding to subtype A
same,effect of DTT on binding to subtype B,AII receptor subtype B,inhibit binding to subtype B
same,inactivation of AII-2 receptor by DTT,AII-2 receptor [13],resistant to DTT inactivation
CNCC(=O)N[C@@H](CCCN=C(N)N)C(=O)N[C@H](C(=O)N[C@@H](Cc1ccc(O)cc1)C(=O)N[C@H](C(=O)N[C@@H](Cc1cnc[nH]1)C(=O)N1CCC[C@H]1C(=O)N[C@@H](C)C(=O)O)C(C)C)C(C)C [Saralasin],preference for one AII receptor subtype,AII-1 receptor [3],no preference
same,IC50,AII-1 receptor [3]; [14],1.7 nM
same,IC50,"AII-1 receptor [3]; read-out: IC50, DuP 753-sensitive site, in the presence of 10^-5 M XB-655, unit inferred",~1.7 nM
same,IC50,[5]; rat adrenal medulla / medullary microsomes,0.4 nM
same,effect of DTT on the inhibition of AII binding,[7],not significantly altered
same,IC50,"AII-2 receptor [4]; IC50 AII-2, in the presence of 10^-5 M DuP 753, rat adrenal cortex microsomes",~1.3 nM and 1.3 nM
B1,amnesia in a PA task,PA task,dose-related amnesia
same,avoidance learning,avoidance learning,disruption of avoidance learning
same,AII level in cerebrospinal fluid (CSF),avoidance learning; increase from 40,about 5000 fmol per mL
